# Values joined by “and” are separate entries in the source; they are usually repeats but may differ in a detail not shown here. Equal entries are not always repeated.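 96-well plates; 48 h exposure; 5 concentrations. Endpoints by linear interpolation between flanking doses. Not reached: highest tested concentration assigned. GI50 = concentration required for 50% inhibition of growth. TGI: total growth inhibition.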
# Legend:
# Assay in all cases: growth of human tumour cells (NCI), 48 h
# 786-0 renal = system: 786-0 renal
# ACHN renal = system: ACHN renal
# HCT-15 colon = system: HCT-15 colon
# LOX IMVI melanoma = system: LOX IMVI melanoma
# NCI-H226 lung = system: NCI-H226 lung
# OVCAR-3 ovarian = system: OVCAR-3 ovarian
# RXF 393 renal = system: RXF 393 renal
# SF-539 CNS = system: SF-539 CNS
# SK-MEL-28 melanoma = system: SK-MEL-28 melanoma
# SK-OV-3 ovarian = system: SK-OV-3 ovarian
Compound,GI50 (786-0 renal),TGI (786-0 renal),GI50 (ACHN renal),TGI (ACHN renal),GI50 (HCT-15 colon),TGI (HCT-15 colon),GI50 (LOX IMVI melanoma),TGI (LOX IMVI melanoma),GI50 (NCI-H226 lung),TGI (NCI-H226 lung),GI50 (OVCAR-3 ovarian),TGI (OVCAR-3 ovarian),GI50 (RXF 393 renal),TGI (RXF 393 renal),GI50 (SF-539 CNS),TGI (SF-539 CNS),GI50 (SK-MEL-28 melanoma),TGI (SK-MEL-28 melanoma),GI50 (SK-OV-3 ovarian),TGI (SK-OV-3 ovarian)
O=C(/C=C/c1ccco1)c1ccc(Nc2nc(Nc3ccc(F)cc3)nc(Nc3ccc(Cl)cc3)n2)cc1,> 34.3 µM,> 49.4 µM,> 45.2 µM,> 78.9 µM,9.47 µM,> 100 µM,16.1 µM,39.3 µM,> 35.4 µM,> 82.2 µM,18 µM,56.8 µM,7.09 µM,45.9 µM,14.2 µM,28.3 µM,> 40.2 µM,> 61.8 µM,26.6 µM,> 56.2 µM
c1ccc(N=C2c3ccccc3CN2c2ccccc2)cc1,,> 100 µM,,> 100 µM,,> 100 µM,,> 100 µM,,> 100 µM,,> 100 µM,,> 100 µM,,> 100 µM,,> 100 µM,,> 100 µM
O=[N+]([O-])c1ccc(N2CCN(Cc3ccccc3)CC2)c2c1no[n+]2[O-],1.72 µM,3.18 µM,0.85 µM,2.2 µM,0.805 µM,2.46 µM,0.558 µM,1.67 µM,1.57 µM,3.46 µM,1.52 µM,2.96 µM,1.31 µM,2.76 µM,1.54 µM,3 µM,3.56 µM,9.07 µM,1.98 µM,4.89 µM
CCn1c(=O)c(-c2ccn[nH]2)cc2c(C)nc(N)nc21,0.511 µM,5.59 µM,1.49 µM,> 100 µM,2.08 µM,> 100 µM,1.73 µM,14.4 µM,2.41 µM,> 100 µM,1.15 µM,> 100 µM,0.426 µM,2.47 µM,1.77 µM,10.1 µM,0.97 µM,6.13 µM,0.698 µM,3.4 µM
COc1nc2c(OC)cccc2c(OC)c1C=O,,> 100 µM,,> 100 µM,,> 100 µM,,> 100 µM,,> 100 µM,,> 100 µM,,> 100 µM,,> 100 µM,,> 100 µM,,> 100 µM
O=C(Nc1ccc(S(=O)(=O)Nc2nccs2)cc1)c1cccnc1Nc1cccc(Cl)c1,17.9 µM,39.9 µM,18.1 µM,96.6 µM,13.5 µM,27.5 µM,7.31 µM,19.9 µM,21.9 µM,98.7 µM,13.1 µM,27.4 µM,14.4 µM,33.4 µM,16.2 µM,44.5 µM,17.8 µM,37.7 µM,20.8 µM,58.8 µM
CS(=O)(=O)c1ccc(Oc2cc(F)cc(C#N)c2)c2c1[C@H](O)[C@H](F)[C@@H]2F,> 100 µM,> 100 µM,> 100 µM,> 100 µM,> 100 µM,> 100 µM,> 100 µM,> 100 µM,> 100 µM,> 100 µM,> 100 µM,> 100 µM,> 100 µM,> 100 µM,> 100 µM,> 100 µM,> 100 µM,> 100 µM,> 100 µM,> 100 µM
O=C1C2C(C(=O)N1O)N(Cc1ccccc1)C(=O)N2Cc1ccccc1 (stereo not drawn),,> 100 µM,,> 100 µM,,> 100 µM,,> 100 µM,,> 100 µM,,> 100 µM,,> 100 µM,,> 100 µM,,> 100 µM,,> 100 µM
Cc1ccc(Nc2nc(NCCO)c3ccccc3n2)cc1C,6.94 µM,20.1 µM,11 µM,23.9 µM,3.26 µM,13.3 µM,3.55 µM,12.4 µM,10.8 µM,22.7 µM,11 µM,23 µM,3.14 µM,13.7 µM,5.87 µM,19.7 µM,6.47 µM,20.1 µM,14.2 µM,27.6 µM
Cc1[nH]c(=O)[nH]c(=O)c1N(CCF)CCCl,,1470 µM,,1220 µM,182 µM and 310 µM and 186 µM,503 µM and 486 µM and 1330 µM,236 µM and 290 µM and 139 µM,726 µM and 671 µM and 787 µM,249 µM,584 µM and 1960 µM and 1390 µM,147 µM and 530 µM,356 µM and 1350 µM and 972 µM,128 µM and 265 µM,296 µM and 662 µM and 596 µM,499 µM and 153 µM,478 µM and 1680 µM and 768 µM,256 µM and 494 µM,589 µM and 1140 µM and 711 µM,332 µM and 472 µM,741 µM and 1330 µM and 1240 µM
C=CC1(C)CCC(C(C)C(=O)C(C=C(C)C)OC(C)=O)C12C(=O)Oc1ccccc1C2=O (stereo not drawn),,> 100 µM,,> 100 µM,,> 100 µM,,> 100 µM,,> 100 µM,,> 100 µM,,> 100 µM,,> 100 µM,,> 100 µM,,> 100 µM
COc1cccc(-c2nn(-c3ccccc3)cc2-c2ccnc(NCCNS(=O)(=O)c3ccc(Cl)cc3)c2)c1,6.61 µM,> 100 µM,4.56 µM,> 100 µM,3.86 µM,> 100 µM,3.12 µM,> 100 µM,7.21 µM,> 100 µM,4.32 µM,> 100 µM,5.03 µM,> 100 µM,7.35 µM,> 100 µM,7.99 µM,> 100 µM,4.43 µM,> 100 µM

# From PubChem BioAssay (NCI)
